Data taken from the NIST ThermoML archive (doi:10.1016/j.jct.2016.06.011).
Numbers after ± are expanded uncertainties.

Experiment: wn = mass fraction of the nth substance listed
Conditions: 101.3 kPa, Liquid, Pycnometric method

Row | SMILES | mass density (283.15 K, w1 = 0.08506) [kg/m3] | mass density (293.15 K, w1 = 0.1354) [kg/m3] | mass density (303.15 K, w1 = 0.21) [kg/m3] | mass density (283.15 K, w1 = 0.3211) [kg/m3] | mass density (293.15 K, w1 = 0.4232) [kg/m3] | mass density (303.15 K, w1 = 0.5289) [kg/m3]
1 | O=C1OC(=O)c2ccccc21 [isobenzofuran-1,3-dione] + C1COCCO1 | 1034 ± 14 | 1051 ± 14 | 1061 ± 14 |  |  | 
2 | O=Cc1ccc2ccccc2c1 [β-naphthaldehyde] + C1COCCO1 |  |  |  | 1049 ± 14 | 1056 ± 14 | 1063 ± 14
